Consider 18 molecules from patent US8268814B2, “Substituted sulfonamide compounds” (Gruenenthal GmbH, priority 2008, dated 2012).

Assay [1] has as its target T1, B1R receptor of the rat (rB1R) (Rattus norvegicus, UniProt P97583).
T1 construct: expressed in transfected cells; host or cells: CHO K1 cells (Chinese hamster ovary), stably transfected
T1 sequence (P97583 1-337): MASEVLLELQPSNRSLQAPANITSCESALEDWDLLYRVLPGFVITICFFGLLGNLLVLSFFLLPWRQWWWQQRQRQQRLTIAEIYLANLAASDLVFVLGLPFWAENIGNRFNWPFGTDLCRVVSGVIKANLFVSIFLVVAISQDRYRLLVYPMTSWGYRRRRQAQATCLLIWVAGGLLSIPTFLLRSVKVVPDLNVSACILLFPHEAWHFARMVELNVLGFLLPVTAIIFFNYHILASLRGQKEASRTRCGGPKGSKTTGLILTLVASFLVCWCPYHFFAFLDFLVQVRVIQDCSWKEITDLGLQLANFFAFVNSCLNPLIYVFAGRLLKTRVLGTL
Briefly: Functional FLIPR Ca2+ assay on the bradykinin 1 receptor, rat (rB1R CHO K1 cells). The class given is cell-based. The conditions noted are these: test substance 10 μM; CHO K1 cells transfected with rat B1R gene; agonist Des-Arg9-bradykinin at EC80; % inhibition compared with maximum achievable inhibition; read-out: B1R antagonism, rat [10 μM] % inhibition. In a few lines:
(§1)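 Stably transfected CHO K1 cells expressing human or rat B1R, Fluo-4-loaded, Ca2+ influx read by FLIPR (peak fluorescence). Compounds (10 μM for % activation) preincubated 10-20 min, then EC80 agonist added: Lys-Des-Arg9-bradykinin for human, Des-Arg9-bradykinin for rat; % inhibition versus maximal inhibition, IC50 from concentration series.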

For assay [2], the target named is T2, human B1R receptor (hB1R) (Homo sapiens, UniProt P46663).
T2 construct: expressed in transfected cells; host or cells: CHO K1 cells (Chinese hamster ovary), stably transfected
T2 sequence (P46663 1-353): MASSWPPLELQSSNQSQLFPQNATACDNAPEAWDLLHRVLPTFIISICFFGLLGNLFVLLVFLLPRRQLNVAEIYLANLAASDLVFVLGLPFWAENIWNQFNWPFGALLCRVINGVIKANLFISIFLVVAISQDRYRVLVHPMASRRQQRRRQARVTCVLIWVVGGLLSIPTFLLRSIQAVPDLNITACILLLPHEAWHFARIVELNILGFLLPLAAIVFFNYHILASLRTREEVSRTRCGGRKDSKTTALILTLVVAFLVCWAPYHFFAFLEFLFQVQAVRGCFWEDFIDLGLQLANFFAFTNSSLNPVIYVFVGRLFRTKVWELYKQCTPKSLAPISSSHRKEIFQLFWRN
Briefly: Functional FLIPR Ca2+ assay on the bradykinin 1 receptor, human (hB1R CHO K1 cells). In kind it is cell-based. The conditions noted are these: test substance 10 μM; CHO K1 cells transfected with human B1R gene; agonist Lys-Des-Arg9-bradykinin at EC80; % inhibition compared with maximum achievable inhibition; read-out: B1R antagonism, human (10 μM] % inhibition. In a few lines:
as §1

In general, inhibition refers to the change of the read-out against control, counted positive when it falls. For `COc1cc(C)c(S(=O)(=O)N2CCCCC2COCC(=O)N2CCc3nc(-c4ccncc4)sc3C2)c(C)c1` (stereo not drawn) [Example 48, 2-((1-(4-methoxy-2,6-dimethylphenylsulfonyl)piperidin-2-yl)methoxy)-1-(2-(pyridin-4-yl)-6,7-dihydrothiazolo[5,4-c]pyridin-5(4H)-yl)ethan-1-one], the inhibition at 10 µM in assay [1] came to 94%; in assay [2], 100%.
The like results for `COc1cc(C)c(S(=O)(=O)N(C)CCOCC(=O)N2CCc3nc(-c4ccncc4)sc3C2)c(C)c1` [Example 49, 4-methoxy-N,2,6-trimethyl-N-(2-(2-oxo-2-(2-(pyridin-4-yl)-6,7-dihydrothiazolo[5,4-c]pyridin-5(4H)-yl)ethoxy)ethyl)benzenesulfonamide] were, in that order, 95% and 99%.
Turning to `COc1cc(C)c(S(=O)(=O)N2CCCCC2COCC(=O)N2CCc3sc(CN4CCN(C)CC4)cc3C2)c(C)c1` (stereo not drawn) [Example 50, 2-((1-(4-methoxy-2,6-dimethylphenylsulfonyl)piperidin-2-yl)methoxy)-1-(2-((4-methylpiperazin-1-yl)methyl)-6,7-dihydrothieno[3,2-c]pyridin-5(4H)-yl)ethan-1-one], the inhibition at 10 µM came out at 102% in assay [1] and 100% in assay [2].
Consider `COc1cc(C)c(S(=O)(=O)N(C)CCOCC(=O)N2CCc3sc(CN4CCN(C)CC4)cc3C2)c(C)c1` [Example 51, 4-methoxy-N,2,6-trimethyl-N-(2-(2-(2-((4-methylpiperazin-1-yl)methyl)-6,7-dihydrothieno[3,2-c]pyridin-5(4H)-yl)-2-oxoethoxy)ethyl)benzenesulfonamide], for which the inhibition at 10 µM turned out to be 103% in assay [1] and 100% in assay [2].
On to `COc1cc(C)c(S(=O)(=O)N2CCCCC2CCC(=O)N2CCc3nc(-c4ccncc4)sc3C2)c(C)c1` (stereo not drawn) [Example 52, 3-(1-(4-methoxy-2,6-dimethylphenylsulfonyl)piperidin-2-yl)-1-(2-(pyridin-4-yl)-6,7-dihydrothiazolo[5,4-c]pyridin-5(4H)-yl)propan-1-one], for which the inhibition at 10 µM in assay [1] came to 95%; in assay [2] it was 76%.
As for `COc1cc(C)c(S(=O)(=O)N2CCCCC2CCCC(=O)N2CCc3nc(-c4ccncc4)sc3C2)c(C)c1` (stereo not drawn) [Example 53, 4-(1-(4-methoxy-2,6-dimethylphenylsulfonyl)piperidin-2-yl)-1-(2-(pyridin-4-yl)-6,7-dihydrothiazolo[5,4-c]pyridin-5(4H)-yl)butan-1-one], the results for the inhibition at 10 µM in assay [1] and in assay [2] were 98% and 96%, respectively.
The like results for `O=C(CC1CCCCN1S(=O)(=O)c1cccc(C(F)(F)F)c1)N1CCc2sccc2C1c1ccncc1` (stereo not drawn) [Example 54, 1-(4-pyridin-4-yl-4,5,6,7-tetrahydro-thieno[3,2-c]pyridin-5-yl)-2-[1-[[3-(trifluoromethyl)phenyl]sulfonyl]-piperidin-2-yl]-ethanone] were, in that order, 101% and 16%.
For `Cc1cc(S(=O)(=O)N2CCCCC2CCC(=O)N2CCc3sccc3C2c2ccncc2)c(C)cc1Cl` (stereo not drawn) [Example 55, 3-[1-[(4-chloro-2,5-dimethyl-phenyl)sulfonyl]-piperidin-2-yl]-1-(4-pyridin-4-yl-4,5,6,7-tetrahydro-thieno[3,2-c]pyridin-5-yl)-propan-1-one] the same measures were 103% and 88%.
As for `Cc1cccc(Cl)c1S(=O)(=O)N(CCOCC(=O)N1CCc2sc(CN3CCC3)cc2C1)C1CC1` [Example 56, N-[2-[2-[2-(Azetidin-1-yl-methyl)-4,5,6,7-tetrahydro-thieno[3,2-c]pyridin-5-yl]-2-oxo-ethoxy]-ethyl]-2-chloro-N-cyclopropyl-6-methyl-benzenesulfonic acid amide], the values for the inhibition at 10 µM in assay [1] and in assay [2] were 105% and 100%, respectively.
For `Cc1cccc(Cl)c1S(=O)(=O)N(CCOCC(=O)N1CCc2sc(CN3CC(F)(F)C3)cc2C1)C1CC1` [Example 57, 2-Chloro-N-cyclopropyl-N-[2-[2-[2-[(3,3-difluoro-azetidin-1-yl)-methyl]-4,5,6,7-tetrahydro-thieno[3,2-c]pyridin-5-yl]-2-oxo-ethoxy]-ethyl]-6-methyl-benzenesulfonic acid amide] the same measures were 99% and 100%.
The like results for `COc1cc(C)c(S(=O)(=O)N2CCCC[C@H]2COCC(=O)N2CCc3nc(CN4CCCCC4)sc3C2)c(C)c1` [Example 58, 2-[[(2S)-1-[(4-Methoxy-2,6-dimethyl-phenyl)sulfonyl]-piperidin-2-yl]-methoxy]-1-[2-(piperidin-1-yl-methyl)-4,5,6,7-tetrahydro-thiazolo[5,4-c]pyridin-5-yl]-ethanone] were, in that order, 103% and 100%.
The like results for `Cc1cccc(Cl)c1S(=O)(=O)N1CCCC[C@H]1COCC(=O)N1CCc2sc(CN3CCCCC3)cc2C1` [Example 59, 2-[[(2S)-1-[(2-chloro-6-methyl-phenyl)sulfonyl]-piperidin-2-yl]-methoxy]-1-[2-(piperidin-1-yl-methyl)-4,5,6,7-tetrahydro-thieno[3,2-c]pyridin-5-yl]-ethanone] were, in that order, 104% and 100%.
Regarding `Cc1cccc(Cl)c1S(=O)(=O)N(CCOCC(=O)N1CCc2sc(CN3CCCCC3)cc2C1)C1CC1` [Example 60, 2-chloro-N-cyclopropyl-6-methyl-N-[2-[2-oxo-2-[2-(piperidin-1-yl-methyl)-4,5,6,7-tetrahydro-thieno[3,2-c]pyridin-5-yl]-ethoxy]-ethyl]-benzenesulfonic acid amide], the results for the inhibition at 10 µM in assay [1] and in assay [2] were 106% and 100%, respectively.
With `COc1cc(C)c(S(=O)(=O)N2c3ccccc3CC[C@H]2COCC(=O)N2CCc3sc(CN4CCCCC4)cc3C2)c(C)c1` [Example 61, 2-[[(2S)-1-[(4-methoxy-2,6-dimethyl-phenyl)sulfonyl]-1,2,3,4-tetrahydro-quinolin-2-yl]-methoxy]-1-[2-(piperidin-1-yl-methyl)-4,5,6,7-tetrahydro-thieno[3,2-c]pyridin-5-yl]-ethanone], the results for the inhibition at 10 µM in assay [1] and in assay [2] were 106% and 100%, respectively.
Turning to `COc1cc(C)c(S(=O)(=O)N2CCCC[C@H]2COCC(=O)N2CCc3sc(CN4CCCC4)cc3C2)c(C)c1` [Example 62, 2-[[(2S)-1-[(4-methoxy-2,6-dimethyl-phenyl)sulfonyl]-piperidin-2-yl]-methoxy]-1-[2-(pyrrolidin-1-yl-methyl)-4,5,6,7-tetrahydro-thieno[3,2-c]pyridin-5-yl]-ethanone], the inhibition at 10 µM in assay [1] was determined as 107%; in assay [2], 100%.
The like results for `COc1cc(C)c(S(=O)(=O)N2CCC[C@H]2COCC(=O)N2CCc3sc(CN4CCCCC4)cc3C2)c(C)c1` [Example 63, 2-[[(2S)-1-[(4-methoxy-2,6-dimethyl-phenyl)sulfonyl]-pyrrolidin-2-yl]-methoxy]-1-[2-(piperidin-1-yl-methyl)-4,5,6,7-tetrahydro-thieno[3,2-c]pyridin-5-yl]-ethanone] were, in that order, 106% and 99%.
The like results for `COc1cc(C)c(S(=O)(=O)N2c3ccccc3CC[C@H]2COCC(=O)N2CCc3onc(-c4ccncc4)c3C2)c(C)c1` [Example 125, 2-[[(2S)-1-[(4-Methoxy-2,6-dimethyl-phenyl)sulfonyl]-1,2,3,4-tetrahydro-quinolin-2-yl]-methoxy]-1-(3-pyridin-4-yl-4,5,6,7-tetrahydro-isoxazolo[4,5-c]pyridin-5-yl)-ethanone] were, in that order, 102% and 75%.
For `COc1cc(C)c(S(=O)(=O)N2CCCCC2COCC(=O)N2CCc3onc(CN4CCCCC4)c3C2c2ccccc2)c(C)c1` (stereo not drawn) [Example 126, 2-((1-(4-Methoxy-2,6-dimethylphenylsulfonyl)piperidin-2-yl)methoxy)-1-(4-phenyl-3-(piperidin-1-ylmethyl)-6,7-dihydroisoxazolo[4,5-c]pyridin-5(4H)-yl)ethanone] the same measures were 104% and 90%.
